# Paper PMC9127750, “Structure-based design of CDC42 effector interaction inhibitors for the treatment of cancer” (Cell reports, 2022)
# Where “and” joins values, the source holds several entries; their conditions need not be identical. Identical values can stand only once.
# System: WM3248 melanoma cells, 486 antibodies
# Assay: Reverse phase protein arrays (RPPA);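 on RPPA ACC1.R.C: ratio of treated to vehicle (0 µM) normalized linear protein signal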;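 on RPPA AMPK.a2 pS345.R.V: ratio of treated to vehicle (0 µM) normalized linear protein signal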;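 on RPPA AMPKa pT172.R.C: ratio of treated to vehicle (0 µM) normalized linear protein signal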;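 on RPPA ASNS.R.V: ratio of treated to vehicle (0 µM) normalized linear protein signal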;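 on RPPA AceCS1.R.V: ratio of treated to vehicle (0 µM) normalized linear protein signal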;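 on RPPA Akt1.R.V: ratio of treated to vehicle (0 µM) normalized linear protein signal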;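 on RPPA Atg5.R.C: ratio of treated to vehicle (0 µM) normalized linear protein signal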
# Assay type: cell-based, Human
# Excerpt: Pellets were snap frozen in liquid nitrogen and shipped to MD Anderson Cancer Center core RPPA facility for RPPA analysis (Table S5). Three biological replicates for each sample were generated.
# Nomenclatures on the RPPA heatmaps: name_of_antibody.species_of_antibody.status_of_antibody. V - antibody validated; C - validation of antibody in progress; Q - antibody nonspecific; E – under evaluation; antibodies raised in M - mouse, G - goat, R - rabbit, or T - rat.
smiles,measurement,setting,value
"CN(C)c1cccc(Nc2cc(-c3ccccc3)nc(C3CCNCC3)n2)c1 [ARN22089, N1,N1-dimethyl-N3-(6-phenyl-2-(piperidin-4-yl)pyrimidin-4-yl)benzene-1,3-diamine]",RPPA EGFR_pY1068.R.C,"5 uM, single samples",1.000 and 0.953 and 1.026
same,RPPA EGFR_pY1173.R.V,"5 uM, single samples",0.975 and 1.083 and 1.079
same,RPPA EMA.M.C,"5 uM, single samples",1.076 and 0.967 and 1.014
same,RPPA ENY2.M.C,"5 uM, single samples",0.948 and 0.847
same,RPPA ER.a.R.V,"5 uM, single samples",0.800 and 1.157 and 1.137
same,RPPA ER.a_pS118.R.V,"5 uM, single samples",0.923 and 1.516 and 1.141
same,RPPA ERCC1.R.C,"5 uM, single samples",1.055 and 0.895 and 0.971
same,RPPA ERCC5.R.C,"5 uM, single samples",1.027 and 0.974 and 0.973
same,RPPA ERRalpha.R.V,"5 uM, single samples",1.078 and 0.970 and 0.952
same,RPPA EVI1.R.V,"5 uM, single samples",0.942 and 0.941
same,RPPA Elk1_pS383.R.C,"5 uM, single samples",0.946 and 1.013 and 1.129
same,RPPA Enolase.1.R.V,"5 uM, single samples",1.024 and 0.893 and 0.818
same,RPPA Enolase.2.R.V,"5 uM, single samples",0.995 and 0.946
same,RPPA EphA2.R.V,"5 uM, single samples",0.776 and 1.046
same,RPPA EphA2_pS897.R.C,"5 uM, single samples",0.644 and 1.190 and 1.055
same,RPPA EphA2_pY588.R.C,"5 uM, single samples",0.942 and 0.920
same,RPPA Erk5.R.V,"5 uM, single samples",1.097 and 1.135
same,RPPA Ets.1.R.V,"5 uM, single samples",1.185 and 0.950 and 0.594
same,RPPA FAK.R.C,"5 uM, single samples",0.858 and 1.217 and 0.941
same,RPPA FAK_pY397.R.V,"5 uM, single samples",1.026 and 0.959 and 1.059
same,RPPA FANCD2.R.V,"5 uM, single samples",0.883 and 1.063
same,RPPA FASN.R.V,"5 uM, single samples",1.017 and 0.767
same,RPPA FGF.basic.R.C,"5 uM, single samples",0.868 and 1.191
same,RPPA FN14.R.C,"5 uM, single samples",0.857 and 1.226 and 1.168
same,RPPA FOXM1.R.V,"5 uM, single samples",0.885
same,RPPA FOXO3.R.V,"5 uM, single samples",0.861 and 0.945 and 1.100
same,RPPA FRS2.alpha_pY196.R.V,"5 uM, single samples",0.930 and 0.961 and 0.957
same,RPPA FTO.R.V,"5 uM, single samples",1.124 and 0.945 and 0.752
same,RPPA FoxO3a_pS318_S321.R.C,"5 uM, single samples",0.918 and 0.939
same,RPPA G6PD.R.V,"5 uM, single samples",0.943 and 0.965
same,RPPA GATA3.M.V,"5 uM, single samples",0.797 and 0.715
same,RPPA GATA6.R.V,"5 uM, single samples",0.919 and 1.005
same,RPPA GCLC.R.C,"5 uM, single samples",1.024 and 1.110 and 0.894
same,RPPA GCLM.R.V,"5 uM, single samples",0.926 and 0.954
same,RPPA GCN5L2.R.V,"5 uM, single samples",0.871 and 1.148
same,RPPA GGPS1.M.V,"5 uM, single samples",0.934 and 0.780
same,RPPA GRB2.R.V,"5 uM, single samples",0.928 and 1.049 and 1.170
same,RPPA GRB7.R.V,"5 uM, single samples",0.960 and 1.157 and 0.957
same,RPPA GSK.3B.R.C,"5 uM, single samples",1.001 and 1.019
same,RPPA GSK.3a.b.M.V,"5 uM, single samples",0.936 and 0.817
same,RPPA GSK.3a.b_pS21_S9.R.V,"5 uM, single samples",0.866 and 1.380 and 0.704
same,RPPA Gab2.R.V,"5 uM, single samples",1.251 and 0.896 and 0.910
same,RPPA Gli1.R.C,"5 uM, single samples",1.000 and 0.967
same,RPPA Gli3.R.C,"5 uM, single samples",0.979 and 1.003 and 0.745
same,RPPA Glucocorticoid.Receptor.R.V,"5 uM, single samples",1.035 and 1.000 and 1.021
same,RPPA Glutamate.D1.2.R.V,"5 uM, single samples",0.976 and 0.943 and 0.801
same,RPPA Glutaminase.R.C,"5 uM, single samples",0.948 and 1.063 and 0.715
same,RPPA Granzyme.B.R.V,"5 uM, single samples",0.964 and 1.146
same,RPPA Grp75.R.C,"5 uM, single samples",0.944 and 0.963
same,RPPA Gys.R.V,"5 uM, single samples",0.967 and 1.080
same,RPPA Gys_pS641.R.V,"5 uM, single samples",0.994 and 1.246 and 0.822
same,RPPA H2AX_pS139.R.C,"5 uM, single samples",0.914 and 1.103
same,RPPA H2AX_pS140.M.C,"5 uM, single samples",1.104 and 0.895 and 0.770
same,RPPA HER2.M.V,"5 uM, single samples",0.948 and 0.899
same,RPPA HER2_pY1248.R.V,"5 uM, single samples",0.827 and 1.156
same,RPPA HER3.R.V,"5 uM, single samples",0.886 and 0.834
same,RPPA HER3_pY1289.R.C,"5 uM, single samples",0.992 and 0.888
same,RPPA HES1.R.V,"5 uM, single samples",1.367 and 1.154
same,RPPA Heregulin.R.V,"5 uM, single samples",0.832 and 1.116 and 1.160
same,RPPA eEF2K.R.V,"5 uM, single samples",0.918 and 0.788
same,RPPA eIF4E.R.V,"5 uM, single samples",0.941 and 1.515 and 0.898
same,RPPA eIF4E_pS209.R.V,"5 uM, single samples",0.935 and 1.281 and 0.858
same,RPPA eIF4G.R.C,"5 uM, single samples",1.030 and 0.956 and 1.155
same,RPPA MYH11.R.C Average,10 uM,1.243
same,RPPA Myosin.IIa.R.C Average,10 uM,0.941
same,RPPA Myosin.IIa_pS1943.R.V Average,10 uM,1.022
same,RPPA Myt1.R.C Average,10 uM,0.989
same,RPPA N.Cadherin.R.V Average,10 uM,1.064
same,RPPA N.Ras.M.V Average,10 uM,0.991
same,RPPA NDRG1_pT346.R.V Average,10 uM,1.015
same,RPPA NDUFB4.R.V Average,10 uM,1.035
same,RPPA NRF2.R.C Average,10 uM,0.996
same,RPPA Notch1.R.V Average,10 uM,1.064
same,RPPA Notch1.cleaved.R.V Average,10 uM,0.926
same,RPPA Notch3.R.C Average,10 uM,1.098
same,RPPA Oct.4.R.C Average,10 uM,1.008
same,RPPA P.Cadherin.R.C Average,10 uM,0.973
same,RPPA PAI.1.M.V Average,10 uM,1.014
same,RPPA PAICS.R.C Average,10 uM,0.920
same,RPPA PAK1.R.V Average,10 uM,0.961
same,RPPA PAK4.R.V Average,10 uM,1.063
same,RPPA PAK_pS474_S602_S560.R.V Average,10 uM,1.085
same,RPPA PAK_pT423_T402.R.C Average,10 uM,0.987
same,RPPA PAR.R.C Average,10 uM,0.480
same,RPPA PARG.R.C Average,10 uM,0.970
same,RPPA PARP.R.V Average,10 uM,1.017
same,RPPA PAX6.R.V Average,10 uM,1.003
same,RPPA PCNA.M.C Average,10 uM,0.987
same,RPPA PD.1.R.V Average,10 uM,1.058
same,RPPA PD.L1.R.C Average,10 uM,0.976
same,RPPA PDH.M.V Average,10 uM,1.031
same,RPPA PDHA1.R.V Average,10 uM,0.986
same,RPPA PDHK1.R.C Average,10 uM,0.952
same,RPPA PDK1_pS241.R.V Average,10 uM,0.942
same,RPPA PEA.15.R.V Average,10 uM,0.922
same,RPPA PERK.R.V Average,10 uM,1.010
same,RPPA PGM1.R.V Average,10 uM,0.998
same,RPPA PHLPP.R.V Average,10 uM,1.083
same,RPPA PI3K.p85.R.C Average,10 uM,1.062
same,RPPA PI3K.p110.a.R.C Average,10 uM,0.904
same,RPPA PI3K.p110.b.M.C Average,10 uM,0.987
same,RPPA PKA.a.R.V Average,10 uM,0.877
same,RPPA PKC.a.b.II_pT638_T641.R.V Average,10 uM,0.910
same,RPPA PKC.b.II_pS660.R.V Average,10 uM,1.018
same,RPPA PKCa.R.V Average,10 uM,0.991
same,RPPA PKM2.R.C Average,10 uM,0.940
same,RPPA PLC.gamma1.R.V Average,10 uM,1.083
same,RPPA PLC.gamma1_pS1248.R.V Average,10 uM,0.999
same,RPPA PLK1.R.C Average,10 uM,0.905
same,RPPA PR.R.V Average,10 uM,1.064
same,RPPA PRAS40.M.C Average,10 uM,1.049
same,RPPA PRAS40_pT246.R.V Average,10 uM,0.957
same,RPPA Patched.R.C Average,10 uM,0.971
same,RPPA Paxillin.R.C Average,10 uM,0.830
same,RPPA Pdcd4.R.C Average,10 uM,0.977
same,RPPA Porin.M.V Average,10 uM,1.020
same,RPPA p21.R.C Average,10 uM,1.010
same,RPPA p27.Kip1.R.C Average,10 uM,1.046
same,RPPA p27_pT157.R.C Average,10 uM,1.014
same,RPPA p27_pT198.R.V Average,10 uM,1.168
same,RPPA p38.MAPK.R.V Average,10 uM,0.975
same,RPPA p38.a.M.V Average,10 uM,1.028
same,RPPA p53.R.C Average,10 uM,0.908
same,RPPA p70.S6K1.R.V Average,10 uM,0.918
same,RPPA p70.S6K_pT389.R.V Average,10 uM,0.996
same,RPPA p90RSK_pT573.R.C Average,10 uM,1.053
same,RPPA A.Raf.R.V,"10 uM, 10W1",0.962
same,RPPA ACC1.R.C,"10 uM, 10W1",1.063
same,RPPA ACC_pS79.R.V,"10 uM, 10W1",0.772
same,RPPA ACLY_pS455.R.V,"10 uM, 10W1",1.099
same,RPPA ACSL1.R.V,"10 uM, 10W1",0.988
same,RPPA ACVRL1.R.C,"10 uM, 10W1",1.018
same,RPPA ADAR1.M.V,"10 uM, 10W1",1.194
same,RPPA ALKBH5.R.V,"10 uM, 10W1",0.984
same,RPPA AMPK.a2_pS345.R.V,"10 uM, 10W1",1.028
same,RPPA AMPKa.R.C,"10 uM, 10W1",0.972
same,RPPA AMPKa_pT172.R.C,"10 uM, 10W1",0.665
same,RPPA AR.R.V,"10 uM, 10W1",0.830
same,RPPA ASNS.R.V,"10 uM, 10W1",0.786
same,RPPA ATM_pS1981.R.V,"10 uM, 10W1",1.131
same,RPPA ATP5A.M.C,"10 uM, 10W1",0.979
same,RPPA ATP5H.R.V,"10 uM, 10W1",1.113
same,RPPA ATRX.R.C,"10 uM, 10W1",1.033
same,RPPA ATR_pS428.R.C,"10 uM, 10W1",0.934
same,RPPA AceCS1.R.V,"10 uM, 10W1",0.931
same,RPPA Akt1.R.V,"10 uM, 10W1",0.892
same,RPPA Akt1_pS473.R.V,"10 uM, 10W1",0.970
same,RPPA Akt2.R.V,"10 uM, 10W1",0.959
same,RPPA Akt2_pS474.R.C,"10 uM, 10W1",1.062
same,RPPA Akt.R.V,"10 uM, 10W1",0.917
same,RPPA Akt_pS473.R.V,"10 uM, 10W1",1.128
same,RPPA Akt_pT308.R.V,"10 uM, 10W1",0.936
same,RPPA Ambra1_pS52.R.C,"10 uM, 10W1",1.051
same,RPPA Annexin.I.M.V,"10 uM, 10W1",1.059
same,RPPA Annexin.VII.M.V,"10 uM, 10W1",1.077
same,RPPA Atg3.R.V,"10 uM, 10W1",0.970
same,RPPA Atg4B.R.C,"10 uM, 10W1",0.890
same,RPPA Atg5.R.C,"10 uM, 10W1",0.920
same,RPPA Atg7.R.V,"10 uM, 10W1",0.855
same,RPPA Aurora.A.R.C,"10 uM, 10W1",0.735
same,RPPA Aurora.ABC_pT288_pT232_pT198.R.C,"10 uM, 10W1",0.857
same,RPPA Aurora.B.R.V,"10 uM, 10W1",1.102
same,RPPA Axl.R.V,"10 uM, 10W1",0.724
